Source: PubChem BioAssay (NCI)
Values joined by “and” are separate entries in the source; they are usually repeats but may differ in a detail not shown here. Equal entries are not always repeated.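 Briefly, cells in 96-well plates were exposed to five compound concentrations for 48 h, and endpoints were estimated by linear interpolation. At the GI50, growth is halved. TGI is the concentration that stops growth completely.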

Experiments:
Experiment in all cases: NCI anticancer screen, dose series, 48 h
[1] = test system: T-47D breast
[2] = test system: UACC-257 melanoma
[3] = test system: TK-10 renal
[4] = test system: NCI-H226 lung
[5] = test system: M14 melanoma
[6] = test system: NCI-H522 lung
[7] = test system: A549 NSCLC
[8] = test system: COLO 205 colon
[9] = test system: SN12C renal
[10] = test system: HS 578T breast
[11] = test system: SF-539 CNS
[12] = test system: HL-60(TB) leukemia
[13] = test system: OVCAR-5 ovarian
[14] = test system: IGROV1 ovarian
[15] = test system: LOX IMVI melanoma
[16] = test system: SNB-75 CNS
[17] = test system: CCRF-CEM leukemia
[18] = test system: DU-145 prostate
[19] = test system: MDA-MB-435
[20] = test system: SK-MEL-2 melanoma
[21] = test system: HCC-2998 colon
[22] = test system: EKVX NSCLC
[23] = test system: SK-OV-3 ovarian
[24] = test system: 786-0 renal
[25] = test system: HCT-15 colon
[26] = test system: UO-31 renal
[27] = test system: SNB-19 CNS
[28] = test system: NCI/ADR-RES ovarian
[29] = test system: U251 CNS
[30] = test system: MOLT-4 leukemia
[31] = test system: OVCAR-3 ovarian
[32] = test system: DLD-1 colon
[33] = test system: PC-3 prostate
[34] = test system: KM20L2 colon
[35] = test system: SR leukemia
[36] = test system: KM12 colon
[37] = test system: SW-620 colon
[38] = test system: ACHN renal
[39] = test system: DMS 273 small cell lung
[40] = test system: BT-549 breast
[41] = test system: RPMI-8226 leukemia
[42] = test system: NCI-H460 lung
[43] = test system: M19-MEL melanoma
[44] = test system: NCI-H23 lung
[45] = test system: CAKI-1 renal
[46] = test system: K-562 leukemia
[47] = test system: HCT-116 colon
[48] = test system: OVCAR-8 ovarian
[49] = test system: MDA-MB-231 breast
[50] = test system: SF-268 CNS
[51] = test system: SK-MEL-5 melanoma
[52] = test system: DMS 114 small cell lung
[53] = test system: UACC-62 melanoma
[54] = test system: MCF7 breast
[55] = test system: LXFL 529 NSCLC
[56] = test system: HT29 colon
[57] = test system: SK-MEL-28 melanoma
[58] = test system: OVCAR-4 ovarian
[59] = test system: SNB-78 CNS
[60] = test system: HOP-62 NSCLC
[61] = test system: RXF 393 renal
[62] = test system: HOP-92 NSCLC
[63] = test system: MALME-3M melanoma
[64] = test system: SF-295 CNS
[65] = test system: A498 renal
[66] = test system: XF 498 CNS
[67] = test system: MDA-N

SMILES: Cc1cc(O)c(C(C)C)cc1S(=O)(=O)O (tested in a mixture with another compound)
- GI50 [1]: 0.856 µM
- TGI [1]: 4.79 µM
- GI50 [2]: 0.963 µM
- GI50 [3]: 1.22 µM
- GI50 [4]: 0.85 µM
- GI50 [5]: 0.296 µM
- GI50 [6]: 0.238 µM
- GI50 [7]: 0.372 µM
- GI50 [8]: 0.224 µM
- GI50 [9]: 0.448 µM
- GI50 [10]: 0.281 µM
- TGI [10]: 1.92 µM
- GI50 [11]: 0.319 µM
- GI50 [12]: 0.279 µM
- GI50 [13]: 0.727 µM
- TGI [13]: 7.54 µM
- GI50 [14]: 0.554 µM
- GI50 [15]: 0.483 µM
- GI50 [16]: 0.378 µM
- GI50 [17]: 0.323 µM
- GI50 [18]: 0.363 µM
- TGI [18]: 2.45 µM
- GI50 [19]: 0.171 µM
- TGI [19]: 0.464 µM
- GI50 [20]: 0.502 µM
- TGI [20]: 2.46 µM
- GI50 [21]: 0.229 µM
- GI50 [22]: 0.678 µM
- TGI [22]: > 100 µM and 14.3 µM
- GI50 [23]: 0.27 µM
- GI50 [24]: 0.586 µM
- GI50 [25]: 0.38 µM
- GI50 [26]: 0.382 µM
- GI50 [27]: 0.423 µM
- GI50 [28]: 0.658 µM
- TGI [28]: 4.79 µM
- GI50 [29]: 0.368 µM
- GI50 [30]: 0.401 µM
- GI50 [31]: 0.259 µM
- TGI [32]: > 100 µM
- GI50 [33]: 0.318 µM
- TGI [33]: 9.01 µM
- TGI [34]: > 100 µM
- GI50 [35]: 0.16 µM
- GI50 [36]: 0.381 µM
- GI50 [37]: 0.404 µM
- GI50 [38]: 1.04 µM
- TGI [38]: > 100 µM and 10.9 µM
- TGI [39]: > 100 µM
- GI50 [40]: 2.26 µM
- TGI [40]: 7.54 µM
- GI50 [41]: 0.357 µM
- GI50 [42]: 0.347 µM
- TGI [43]: > 100 µM
- GI50 [44]: 0.427 µM
- TGI [44]: > 100 µM and 10.4 µM
- GI50 [45]: 0.435 µM
- TGI [45]: 10.8 µM
- GI50 [46]: 0.375 µM
- GI50 [47]: 0.343 µM
- GI50 [48]: 0.335 µM
- GI50 [49]: 0.377 µM
- TGI [49]: 1.65 µM
- GI50 [50]: 0.797 µM
- GI50 [51]: 0.394 µM
- TGI [51]: 1.44 µM
- TGI [52]: > 100 µM
- GI50 [53]: 0.566 µM
- GI50 [54]: 0.325 µM
- TGI [54]: 1.57 µM
- TGI [55]: > 100 µM
- GI50 [56]: 0.337 µM
- TGI [56]: 1.1 µM
- GI50 [57]: 0.634 µM
- GI50 [58]: 0.507 µM
- TGI [58]: 6.64 µM
- TGI [59]: > 100 µM
- GI50 [60]: 0.442 µM
- GI50 [61]: 0.213 µM
- GI50 [62]: 0.188 µM
- TGI [62]: 1.66 µM
- GI50 [63]: 0.774 µM
- GI50 [64]: 0.281 µM
- GI50 [65]: 0.244 µM
- TGI [65]: 2.16 µM

SMILES: Cn1cc2ccccc2c1-c1nc(F)nc(F)n1
- TGI [3]: > 100 µM
- TGI [4]: > 100 µM
- TGI [5]: > 100 µM
- TGI [6]: > 100 µM
- TGI [7]: > 100 µM
- TGI [8]: > 100 µM
- TGI [66]: 90.6 µM
- TGI [9]: > 100 µM
- TGI [11]: > 100 µM
- TGI [12]: > 100 µM
- TGI [13]: > 100 µM
- TGI [14]: > 100 µM
- TGI [15]: > 100 µM
- TGI [16]: > 100 µM
- TGI [17]: > 100 µM
- TGI [20]: > 100 µM
- TGI [21]: > 100 µM
- TGI [22]: > 100 µM
- TGI [23]: > 100 µM
- TGI [24]: > 100 µM
- TGI [25]: > 100 µM
- TGI [26]: > 100 µM
- TGI [27]: > 100 µM
- TGI [29]: > 100 µM
- TGI [30]: > 100 µM
- TGI [31]: > 100 µM
- TGI [32]: > 100 µM
- TGI [34]: > 100 µM
- TGI [35]: > 100 µM
- TGI [36]: > 100 µM
- TGI [37]: > 100 µM
- TGI [38]: > 100 µM
- TGI [39]: > 100 µM
- TGI [41]: 90.5 µM
- TGI [42]: > 100 µM
- TGI [43]: > 100 µM
- TGI [44]: > 100 µM
- TGI [45]: > 100 µM
- TGI [46]: > 100 µM
- TGI [47]: > 100 µM
- TGI [50]: > 100 µM
- TGI [51]: > 100 µM
- TGI [52]: > 100 µM
- TGI [55]: > 100 µM
- TGI [56]: > 100 µM
- TGI [57]: > 100 µM
- TGI [58]: > 100 µM
- TGI [59]: > 100 µM
- TGI [60]: > 100 µM
- TGI [61]: > 100 µM
- TGI [62]: > 100 µM
- TGI [63]: > 100 µM
- TGI [64]: > 100 µM
- TGI [65]: > 100 µM

SMILES: CC1=NN(C(=O)c2ccccc2O)C(=O)/C1=C/c1ccco1
- TGI [1]: > 100 µM
- TGI [2]: > 83.1 µM
- TGI [3]: > 100 µM
- TGI [4]: 44.4 µM
- TGI [5]: > 100 µM
- TGI [6]: 37.7 µM
- TGI [7]: > 100 µM
- TGI [8]: > 63.8 µM
- TGI [66]: > 100 µM
- TGI [9]: > 39.3 µM
- TGI [11]: 10.7 µM
- TGI [12]: > 26.8 µM
- TGI [13]: > 100 µM
- TGI [14]: > 35.4 µM
- TGI [15]: > 75.5 µM
- TGI [16]: 69.4 µM
- TGI [17]: > 100 µM
- TGI [18]: > 100 µM
- TGI [19]: > 100 µM
- TGI [20]: > 100 µM
- TGI [21]: > 100 µM
- TGI [22]: 44.2 µM
- TGI [23]: > 82 µM
- TGI [24]: > 100 µM
- TGI [25]: > 100 µM
- TGI [27]: > 91.1 µM
- TGI [28]: 85.3 µM
- TGI [29]: > 100 µM
- TGI [30]: > 100 µM
- TGI [31]: 6.11 µM
- TGI [32]: > 100 µM
- TGI [33]: 46 µM
- TGI [67]: > 100 µM
- TGI [34]: 81 µM
- TGI [35]: > 100 µM
- TGI [36]: > 100 µM
- TGI [37]: > 100 µM
- TGI [38]: > 100 µM
- TGI [40]: > 100 µM
- TGI [41]: > 92.6 µM
- TGI [42]: > 60.5 µM
- TGI [43]: 20 µM
- TGI [44]: > 26.9 µM
- TGI [45]: 19.7 µM
- TGI [46]: > 100 µM
- TGI [47]: > 100 µM
- TGI [48]: 97.9 µM
- TGI [49]: > 100 µM
- TGI [50]: > 100 µM
- TGI [51]: 9.19 µM
- TGI [52]: 6.94 µM
- TGI [53]: 6.27 µM
- TGI [54]: 37.9 µM
- TGI [55]: > 100 µM
- TGI [56]: > 100 µM
- TGI [57]: > 100 µM
- TGI [58]: > 84.8 µM
- TGI [59]: > 100 µM
- TGI [62]: > 71.4 µM
- TGI [63]: 73.1 µM
- TGI [64]: > 88.3 µM
- TGI [65]: > 100 µM
